Results published in patent publication US7851637B2, “Compounds and methods for inhibiting the interaction of BCL proteins with binding partners” (Infinity Pharmaceuticals, Inc., priority 2004, dated 2010).

What was measured:
Bcl-xL = Bcl-xL (Homo sapiens, UniProt Q07817); assay: Bcl-xL binding affinity analysis (fluorescence polarization binding assay); design: scale not given here
Method in brief: (§1)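 Sensitive, quantitative cell-free test: compound incubated with protein, then polarization of emitted fluorescence recorded to gauge affinity.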

Bcl-2 = Bcl-2 (Homo sapiens, UniProt P10415); assay: Bcl-2 binding affinity analysis (fluorescence polarization binding assay)
Method in brief: as §1

Bcl-xL, sequence (Q07817 whole entry): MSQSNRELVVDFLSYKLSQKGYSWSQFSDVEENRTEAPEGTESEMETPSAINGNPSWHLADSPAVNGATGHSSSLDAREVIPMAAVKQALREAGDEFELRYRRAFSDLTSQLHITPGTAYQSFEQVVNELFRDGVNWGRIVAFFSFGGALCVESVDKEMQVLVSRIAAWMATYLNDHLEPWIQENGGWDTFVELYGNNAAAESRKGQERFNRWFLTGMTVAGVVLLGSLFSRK
Bcl-2, sequence (P10415 whole entry): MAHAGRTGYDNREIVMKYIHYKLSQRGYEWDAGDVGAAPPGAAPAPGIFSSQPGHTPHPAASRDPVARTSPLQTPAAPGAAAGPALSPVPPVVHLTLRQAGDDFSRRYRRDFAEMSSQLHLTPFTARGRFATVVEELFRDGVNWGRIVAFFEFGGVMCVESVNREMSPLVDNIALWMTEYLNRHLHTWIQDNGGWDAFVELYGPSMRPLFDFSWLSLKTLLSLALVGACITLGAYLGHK

Row | Compound | Bcl-XL binding affinity Ki (Bcl-xL) | Ki (Bcl-2) [nM]
1 | C[C@H](O)[C@@H]1[C@H](CO)ON(Cc2cccc(CN(CCN(C)C)Cc3ccccc3)c2)[C@@H]1C(=O)NCCc1cccc(Br)c1 [Compound 514] | ♯ | 800 to 6000
2 | CC(O)C1C(CO)ON(Cc2cccc(CN(CCN(C)C)Cc3ccccc3-c3ccc(F)cc3)c2)C1C(=O)NC1CC2CC(C1C)C2(C)C (stereo not shown) [Compound 341] | ♯ | < 800
3 | C[C@@H](O)[C@H]1[C@@H](CO)ON(Cc2cccc(C#CC(C)(O)c3ccccc3)c2)[C@H]1C(=O)NCC1CCCCC1 (stereo partly shown) [Compound 37] | ♯ | 6000 to 50000
4 | CC(C)C[C@@H](CN(C)C)N(Cc1ccccc1)Cc1cccc(CN2O[C@@H](CO)[C@@H]([C@H](C)O)[C@H]2C(=O)NCc2cccc3ccccc23)c1 [Compound 532] | ♯ | 800 to 6000
5 | C[C@@H]1[C@@H](NC(=O)[C@@H]2[C@H]([C@H](C)O)[C@H](CO)ON2CCCCN(CCN(C)C)CC2CCCCC2)C[C@H]2C[C@@H]1C2(C)C [Compound 553] | ♯ | 800 to 6000
6 | C[C@@H](O)[C@H]1[C@@H](CO)ON(Cc2cccc(C#CCNC(=O)c3ccccc3)c2)[C@H]1C(=O)NCc1ccc(-c2ccccc2)cc1 [Compound 60] | ♯♯ | > 50000
7 | COc1ccc(Br)cc1CN(Cc1cccc(CN2OC(CO)C(C(C)O)C2C(=O)NC2CC3CC(C2C)C3(C)C)c1)C(CC(C)C)CN(C)C (stereo not shown) [Compound 335] | ♯ | < 800
8 | CC(C)C[C@@H](CN(C)C)N(Cc1ccccc1)Cc1cccc(CN2O[C@@H](CO)[C@@H]([C@H](C)O)[C@H]2C(=O)NCc2ccc(-c3ccccc3)cc2)c1 [Compound 536] | ♯ | 800 to 6000
9 | C[C@@H]1[C@@H](NC(=O)[C@@H]2C([C@H](C)O)[C@H](CO)ON2Cc2cccc(CN(CCN(C)C)C(c3ccccc3)c3ccccc3)c2)C[C@H]2C[C@@H]1C2(C)C (stereo partly shown) [Compound 441] | ♯ | < 800
10 | C[C@H](O)[C@@H]1[C@H](CO)ON(Cc2cccc(CN(CCN(C)C)Cc3ccccc3)c2)[C@@H]1C(=O)NC1CCN(Cc2ccccc2)CC1 [Compound 527] | ♯ | 6000 to 50000
11 | C[C@@H]1[C@@H](NC(=O)[C@@H]2[C@H]([C@H](C)O)[C@H](CO)ON2CCCCN(CCN(C)C)Cc2ccccc2F)C[C@H]2C[C@@H]1C2(C)C [Compound 550] | ♯ | 800 to 6000
12 | COC(=O)[C@@H](NC(=O)[C@@H]1[C@H]([C@H](C)O)[C@H](CO)ON1Cc1cccc(C#CC2(N)CCCCC2)c1)C(C)C [Compound 47] | ♯♯ | > 50000
13 | C[C@H](O)[C@@H]1[C@H](CO)ON(Cc2cccc(CN(CCN(C)C)Cc3ccccc3)c2)[C@@H]1C(=O)N[C@H]1CCN(Cc2ccccc2)C1 [Compound 518] | ♯ | 6000 to 50000
14 | COc1cccc(CN(Cc2cccc(CN3OC(CO)C(C(C)O)C3C(=O)NC3CC4CC(C3C)C4(C)C)c2)C(CC(C)C)CN(C)C)c1OC (stereo not shown) [Compound 304] | ♯ | < 800
15 | C[C@@H](O)[C@H]1[C@@H](CO)ON(Cc2cccc(C#CCCCCl)c2)[C@H]1C(=O)NCCCN(C)c1ccccc1 [Compound 44] | ♯ | 6000 to 50000
16 | C[C@H](O)[C@@H]1[C@H](CO)ON(Cc2cccc(CN(CCN(C)C)Cc3ccccc3)c2)[C@@H]1C(=O)NCCCc1ccccc1 [Compound 525] | ♯ | 6000 to 50000
17 | CC(O)C1C(CO)ON(Cc2cccc(CN(CCN(C)C)Cc3ccccc3-c3ccc(Cl)cc3)c2)C1C(=O)NC1CC2CC(C1C)C2(C)C (stereo not shown) [Compound 409] | ♯ | < 800
18 | C[C@@H](O)[C@H]1[C@@H](CO)ON(Cc2cccc(C#C[C@@H](O)c3ccccc3)c2)[C@H]1C(=O)NCCCN(C)c1ccccc1 [Compound 48] | ♯ | 800 to 6000

Now from value to molecule:

Row | Bcl-XL binding affinity Ki (Bcl-xL) | Ki (Bcl-2) [nM] | Compound
19 | ♯♯ | < 800 | CCCNC(=O)c1cccc(-c2cccc(CN3O[C@@H](CO)[C@@H]([C@H](C)O)[C@H]3C(=O)N[C@H]3C[C@H]4C[C@@H]([C@@H]3C)C4(C)C)c2)c1 [Compound 135]
20 | ♯ | < 800 | CC(=O)Nc1ccc(-c2cccc(CN3O[C@@H](CO)[C@@H]([C@H](C)O)[C@H]3C(=O)NC3C[C@H]4C[C@@H]([C@@H]3C)C4(C)C)c2)cc1 (stereo partly shown) [Compound 294]
21 | ♯ | < 800 | C[C@@H]1[C@@H](NC(=O)[C@@H]2[C@H]([C@H](C)O)[C@H](CO)ON2Cc2cccc(CN(CCCc3ccccc3)CCN(C)C)c2)C[C@H]2C[C@@H]1C2(C)C [Compound 205]
22 | ♯♯ | < 800 | Cc1cc(-c2cccc(CN3O[C@@H](CO)[C@@H]([C@H](C)O)[C@H]3C(=O)N[C@H]3C[C@H]4C[C@@H]([C@@H]3C)C4(C)C)c2)ccc1C(=O)N(C)C [Compound 150]
23 | ♯ | < 800 | CCN(CC)CCN(CCN(CC)CC)C(=O)c1ccc(-c2cccc(CN3O[C@@H](CO)[C@@H]([C@H](C)O)[C@H]3C(=O)N[C@H]3C[C@H]4C[C@@H]([C@@H]3C)C4(C)C)c2)cc1 [Compound 188]
24 | ♯ | < 800 | COc1ccc(O)c(CN(Cc2cccc(CN3OC(CO)C(C(C)O)C3C(=O)NC3CC4CC(C3C)C4(C)C)c2)C(CC(C)C)CN(C)C)c1 (stereo not shown) [Compound 332]
25 | ♯ | < 800 | Cc1ccccc1CN(CCN(C)C)Cc1cccc(CN2OC(CO)C(C(C)O)C2C(=O)NC2CC3CC(C2C)C3(C)C)c1 (stereo not shown) [Compound 372]
26 | ♯♯ | < 800 | C[C@@H]1[C@@H](NC(=O)[C@@H]2[C@H]([C@H](C)O)[C@H](CO)ON2Cc2cccc(-c3cccc(O)c3)c2)C[C@H]2C[C@@H]1C2(C)C [Compound 147]
27 | ♯ | < 800 | C[C@@H]1[C@@H](NC(=O)[C@@H]2[C@H]([C@H](C)O)[C@H](CO)ON2Cc2cccc(-c3cccc(S(C)(=O)=O)c3)c2)C[C@H]2C[C@@H]1C2(C)C [Compound 200]
28 | ♯ | < 800 | C[C@@H]1[C@@H](NC(=O)[C@@H]2[C@H]([C@H](C)O)[C@H](CO)ON2Cc2cccc(-c3cccc(C(=O)NCCO)c3)c2)C[C@H]2C[C@@H]1C2(C)C [Compound 218]
29 | ♯ | < 800 | CC(O)C1C(CO)ON(Cc2cccc(CN(CCN(C)C)c3ccccc3)c2)C1C(=O)NC1CC2CC(C1C)C2(C)C (stereo not shown) [Compound 476]
30 | ♯ | < 800 | CC(C)CC(CN(C)C)N(Cc1cccc(CN2OC(CO)C(C(C)O)C2C(=O)NC2CC3CC(C2C)C3(C)C)c1)Cc1cccc(C(C)(C)C)c1O (stereo not shown) [Compound 338]
31 | ♯ | < 800 | COc1cccc(O)c1CN(Cc1cccc(CN2OC(CO)C(C(C)O)C2C(=O)NC2CC3CC(C2C)C3(C)C)c1)C(CC(C)C)CN(C)C (stereo not shown) [Compound 336]
32 | ♯ | < 800 | C[C@H](O)[C@@H]1[C@H](CO)ON(Cc2cccc(N3CCN(C(=O)N(C)C)CC3)c2)[C@@H]1C(=O)NC1C[C@H]2C[C@@H]([C@@H]1C)C2(C)C (stereo partly shown) [Compound 291]
33 | ♯ | < 800 | C[C@@H]1[C@@H](NC(=O)[C@@H]2[C@H]([C@H](C)O)[C@H](CO)ON2Cc2cccc(N3CCN(C(=O)NCc4ccccc4)CC3)c2)C[C@H]2C[C@@H]1C2(C)C [Compound 260]
34 | ♯ | < 800 | C[C@@H]1[C@@H](NC(=O)[C@@H]2[C@H]([C@H](C)O)[C@H](CO)ON2Cc2cccc(N3CCN(S(C)(=O)=O)CC3)c2)C[C@H]2C[C@@H]1C2(C)C [Compound 293]
35 | ♯ | < 800 | CCN(CC)C(=O)c1ccc(-c2cccc(CN3O[C@@H](CO)[C@@H]([C@H](C)O)[C@H]3C(=O)N[C@H]3C[C@H]4C[C@@H]([C@@H]3C)C4(C)C)c2)cc1 [Compound 108]
36 | ♯ | < 800 | CC(O)C1C(CO)ON(Cc2cccc(C(=O)NC(CCc3ccccc3)CN(C)C)c2)C1C(=O)NC1CC2CC(C1C)C2(C)C (stereo not shown) [Compound 511]
37 | ♯ | < 800 | CC(C)CC(CN(C)C)NCc1cccc(CN2O[C@@H](CO)C([C@H](C)O)[C@H]2C(=O)NC2CC3CC([C@@H]2C)C3(C)C)c1 (stereo partly shown) [Compound 223]
38 | ♯ | < 800 | C[C@@H]1[C@@H](NC(=O)[C@@H]2[C@H]([C@H](C)O)[C@H](CO)ON2Cc2cccc(-c3ccc(C(=O)N(C)C)cc3)c2)C[C@H]2C[C@@H]1C2(C)C [Compound 118]
39 | ♯ | < 800 | C[C@H](O)[C@@H]1[C@H](CO)ON(Cc2cccc(-c3ccc(C(=O)N[C@H]4CCN(C)C4)cc3)c2)[C@@H]1C(=O)NC1C[C@H]2C[C@@H]([C@@H]1C)C2(C)C (stereo partly shown) [Compound 231]
40 | ♯♯ | < 800 | C[C@@H]1[C@@H](NC(=O)[C@@H]2[C@H]([C@H](C)O)[C@H](CO)ON2Cc2cccc(-c3cccc(C(=O)NCCCNC(=O)OC(C)(C)C)c3)c2)C[C@H]2C[C@@H]1C2(C)C [Compound 154]
41 | ♯ | < 800 | C[C@@H]1[C@@H](NC(=O)[C@@H]2[C@H]([C@H](C)O)[C@H](CO)ON2Cc2cccc(CN(CCN(C)C)CC(C)(C)C)c2)C[C@H]2C[C@@H]1C2(C)C [Compound 213]
42 | ♯♯ | < 800 | C[C@@H]1C(NC(=O)[C@@H]2[C@H]([C@H](C)O)[C@H](CO)ON2Cc2cccc(-c3ccc(NC(=O)N(C)C)cc3)c2)C[C@@H]2CC1C2(C)C (stereo partly shown) [Compound 283]
43 | ♯ | < 800 | C[C@@H]1[C@@H](NC(=O)[C@@H]2[C@H]([C@H](C)O)[C@H](CO)ON2Cc2cccc(-c3ccc(C(=O)N(C)C)c([N+](=O)[O-])c3)c2)C[C@H]2C[C@@H]1C2(C)C [Compound 136]
44 | ♯ | < 800 | CC(O)C1C(CO)ON(Cc2cccc(CNC(Cc3ccccc3)CN(C)C)c2)C1C(=O)NC1CC2CC(C1C)C2(C)C (stereo not shown) [Compound 467]
